# Read-outs that look alike come from different tables or passages of the source.
# Experiment: Pharmacokinetics in women (Example 23)
# Type: in vivo
# Conditions: composition with 400 mg/ml MPA; for Cmax / half-life / Tmax / concentration at 28 day / concentration at 91 day / concentration at 182 day: female, human, in vivo
# Protocol: 12 women were sequentially administered medroxyprogesterone acetate. PK was evaluated for at least 182 days. The composition tested was an embodiment of the disclosure and included 400 mg/ml MPA,
smiles,measurement,setting,value
CC(=O)O[C@]1(C(C)=O)CC[C@H]2[C@@H]3C[C@H](C)C4=CC(=O)CC[C@]4(C)[C@H]3CC[C@@]21C [medroxyprogesterone acetate],"AUC0-28, Mean",N 6,9.84 ng·days/mL
same,"AUC0-28, Median",N 6,9.31 ng·days/mL
same,"AUC0-28, Min-Max",N 6,7.83 to 14.52 ng·days/mL
same,"AUC0-91, Mean",N 6,34.52 ng·days/mL
same,"AUC0-91, Median",N 6,34.87 ng·days/mL
same,"AUC0-91, Min-Max",N 6,23.41 to 44.06 ng·days/mL
same,"AUC0-182, Mean",N 6,60.21 ng·days/mL
same,"AUC0-182, Median",N 6,60.28 ng·days/mL
same,"AUC0-182, Min-Max",N 6,38.62 to 84.88 ng·days/mL
same,Cmax,"N 6, read-out: Cmax, Mean",0.53 ng/mL
same,Cmax,"N 6, read-out: Cmax, Median",0.55 ng/mL
same,Cmax,"N 6, read-out: Cmax, Min-Max",0.42 to 0.69 ng/mL
same,half-life,"N 6, read-out: Half-life, Mean (converted)",99.4 days
same,half-life,"N 6, read-out: Half-life, Median (converted)",104 days
same,half-life,"N 6, read-out: Half-life, Min-Max",22.9 to 166 days
same,Tmax,"N 6, read-out: Tmax, Mean (converted)",17.4 days
same,Tmax,"N 6, read-out: Tmax, Median (converted)",9.49 days
same,concentration at 28 day,"day 28, N 6, read-out: C28, Mean",0.36 ng/mL
same,concentration at 28 day,"day 28, N 6, read-out: C28, Median",0.36 ng/mL
same,concentration at 28 day,"day 28, N 6, read-out: C28, Min-Max",0.03 to 0.5 ng/mL
same,concentration at 91 day,"day 91, N 6, read-out: C91, Mean",0.41 ng/mL
same,concentration at 91 day,"day 91, N 6, read-out: C91, Median",0.41 ng/mL
same,concentration at 91 day,"day 91, N 6, read-out: C91, Min-Max",0.26 to 0.63 ng/mL
same,concentration at 182 day,"day 182, N 6, read-out: C182, Mean",0.22 ng/mL
same,concentration at 182 day,"day 182, N 6, read-out: C182, Median",0.22 ng/mL
same,concentration at 182 day,"day 182, N 6, read-out: C182, Min-Max",0.14 to 0.34 ng/mL

# Reference: patent US11752095B2, “Medroxyprogesterone acetate injectable compositions and methods of use” (Family Health International, priority 2018, dated 2023)
